Measured values taken from patent publication US20240122857A1, “PHARMACEUTICAL FORMULATIONS OF INDOLEAMINE 2, 3-DIOXYGENASE INHIBITORS” (BRISTOL-MYERS SQUIBB COMPANY, priority 2019, published 2024).
Counter-ions that a name gives are not always drawn.

Experiment: Excipient compatibility study
Assay type: physicochemical

C[C@@H](C(=O)Nc1ccc(Cl)cc1)[C@H]1CC[C@@H](c2ccnc3ccc(F)cc32)CC1 [Compound I-MSA, (R)—N-(4-chlorophenyl)-2-((1S, 4S)-4-(6-fluoroquinolin-4-yl)cyclohexyl) propanamide methane sulfonic acid salt]
chemical stability with commonly used pharmaceutical excipients: acceptable chemical stability
